Test results published in patent publication EP0597838B1, “VACCINE COMPOSITIONS” (NORTH AMERICAN VACCINE, INC., priority 1990, dated 1991).
Where a name gives a salt, the structure may show the parent alone.

Assays:
[1] = test system: hepatitis B surface antigen; assay: Antibody response to hepatitis B surface antigen as a function of octadecyl tyrosine dose, radioimmunoassay of sera; type: in vivo, BALB/c mice; conditions: day 21, 80 ng HBsAg, boost 50 ng, pre-bleed value 11.5
[2] = C.L. Penney et al, Vaccine 4, 1986; cited from earlier work
[3] = test system: HIV-1 polypeptide, residues 503-535; assay: Antibody response to HIV-1 polypeptide 503-535 coupled to KLH in mice, radioimmunoassay of sera; type: in vivo, BALB/c mice; conditions: 100 µg polypeptide-KLH on day 1 and day 21
Experimental: 1) HIV Peptide Sequence The peptide sequence of the HIV was as follows. Product: BC-101 503- H-[…] 535 M.W. 3585.14 (Back-bone) 2) Experiments in mice BALB/c mice were immunized with 100 µg of chemically synthesized polypeptide, corresponding to the amino acid sequence of residues 503-535 of HIV-1, coupled to Keyhole Limpet Hemocyanin (KLH). Octadecyl tyrosine hydro-chloride, 10 µg-100 µg, was complexed with the polypeptide as described in Example 2. This mixture, in a total volume of 0.1 ml, was injected on day 1, and again on day 21. The mice were bled on days 7, 14, 21, 28 and 35. The antibody concentration in the sera was determined by radioimmunoassay. The antibody concentration was estimated by comparison with a standard curve obtained using a polyclonal antibody.

[4] = test system: hepatitis B surface antigen; assay: Antibody response to hepatitis B surface antigen as a function of octadecyl tyrosine dose, radioimmunoassay of sera; type: in vivo, BALB/c mice; conditions: 80 ng HBsAg, boost 50 ng, pre-bleed value 11.5
Experimental: (§1) BALB/c mice were immunized with 50 ng of hepatitis B surface antigen in the presence of adjuvant for the non-control mice and in the absence of adjuvant for the control mice. The hepatitis B surface antigen was obtained from 3T3 cells transfected with the gene for the surface antigen. 100 µg of octadecyl amino acid was complexed with the polypeptide as described in Example 2. This mixture, in a total volume of 0.1 ml, was injected on day 1 using an intramuscular route, and the mice were bled on days 7, 14, 21, 28, 35, 42 and 61. The mice were boosted with 35 ng of the polypeptide on day 21.
(§2) The antibody concentration in the sera was determined by radioimmunoassay. The antibody concentration was estimated by comparison with a standard curve obtained using a monoclonal antibody.
The immunizations were carried out in the presence of adjuvant for the non-control mice and in the absence of adjuvant for the control mice.

[5] = test system: hepatitis B surface antigen; assay: Isotype of the anti-hepatitis B surface antigen antibody response, radioimmunoassay with tritium labelled anti-mouse isotype antibody; type: in vivo, mice; conditions: for IgE, radioactivity of bound isotype antibody / IgG1, radioactivity of bound isotype antibody / IgG2a, radioactivity of bound isotype antibody / IgG2b, radioactivity of bound isotype antibody / IgG3, radioactivity of bound isotype antibody / IgM, radioactivity of bound isotype antibody: immunization on day 1 and 21, 50 µg of octadecyl tyrosine
Experimental: The protocol was as described in Example 5, Section 2 (mice) except that 50 µg of octadecyl tyrosine was used for both the primary and secondary (day 21) immunizations. The isotype of the antibody response was determined by radioimmunoassay. Use was made of tritium labelled anti-mouse isotype antibody. Titration was undertaken by incubation of samples on plates coated with immunoaffinity purified hepatitis B surface antigen.

[6] = test system: hepatitis B surface antigen; assay: Antibody response to hepatitis B surface antigen with octadecyl amino acid immunoadjuvants, radioimmunoassay of sera; type: in vivo, BALB/c mice; conditions: 50 ng HBsAg i.m. day 1, boost 35 ng day 21, 100 µg octadecyl amino acid
Experimental: as §1, §2

[7] = test system: HIV-1 polypeptide; assay: Antibody response to HIV-1 polypeptide in baboons with octadecyl tyrosine hydrochloride, radioimmunoassay; type: in vivo
Experimental: 3) Experiments in baboons Two baboons were immunized with 300 µg of chemically synthesized polypeptide, corresponding to the amino acid sequence of residues 503-535 of HIV-1, coupled to Keyhole Limpet Hemocyanin. 500 µg of octadecyl tyrosine hydrochloride was complexed with the polypeptide, as described in Example 2. This mixture in a total volume of 1.0 ml was injected on day 1 and again on day 35. The animals were bled 3 days before the first immunization, and on days 14, 32 and 49. The same experiment was undertaken with another two baboons, but with polypeptide corresponding to the amino acid sequence 526-535 of HIV-1. The antibody concentration in the sera was indirectly measured by radioimmunoassay. Tiltration was undertaken by incubation of samples on plates coated with peptide-albumin conjugate, and reaction with iodine-125 labelled rabbit anti-monkey immunoglobulin.

Question: Which results are given for CCCCCCCCCCCCCCCCCCOC(=O)C(N)Cc1ccc(O)cc1 (stereo not shown) [Octadecyl Tyrosine, octadecyl tyrosine hydrochloride]?
Answer: Antibody response to hepatitis B surface antigen ([1]; 10 µg adjuvant): 342 CPM; Antibody response to hepatitis B surface antigen ([1]; 50 µg adjuvant): 4000 CPM; Antibody response to hepatitis B surface antigen ([1]; 100 µg adjuvant): 1279 CPM; toxicity in animals [2]: non-toxic; Anti-peptide antibody concentration ([3]; 10 µg adjuvant, day 7): 1.61 µg/mL; Anti-peptide antibody concentration ([3]; 10 µg adjuvant, day 14): 3.15 µg/mL; Anti-peptide antibody concentration ([3]; 10 µg adjuvant, day 21): 1.49 µg/mL; Anti-peptide antibody concentration ([3]; 10 µg adjuvant, day 28): 85.9 µg/mL; Anti-peptide antibody concentration ([3]; 10 µg adjuvant, day 35): 131.9 µg/mL; Anti-peptide antibody concentration ([3]; 50 µg adjuvant, day 7): 1.18 µg/mL; Anti-peptide antibody concentration ([3]; 50 µg adjuvant, day 14): 0.75 µg/mL; Anti-peptide antibody concentration ([3]; 50 µg adjuvant, day 21): 2.99 µg/mL; Anti-peptide antibody concentration ([3]; 50 µg adjuvant, day 28): 54.2 µg/mL; Anti-peptide antibody concentration ([3]; 50 µg adjuvant, day 35): 86.2 µg/mL; Anti-peptide antibody concentration ([3]; 100 µg adjuvant, day 7): 0.87 µg/mL; Anti-peptide antibody concentration ([3]; 100 µg adjuvant, day 14): 1.65 µg/mL; Anti-peptide antibody concentration ([3]; 100 µg adjuvant, day 21): 2.04 µg/mL; Anti-peptide antibody concentration ([3]; 100 µg adjuvant, day 28): 155.3 µg/mL; Anti-peptide antibody concentration ([3]; 100 µg adjuvant, day 35): 138.0 µg/mL; Antibody response to hepatitis B surface antigen ([4]; 10 µg adjuvant, day 7): 611 CPM; Antibody response to hepatitis B surface antigen ([4]; 10 µg adjuvant, day 14): 2314 CPM; Antibody response to hepatitis B surface antigen ([4]; 10 µg adjuvant, day 28): 8403 CPM; Antibody response to hepatitis B surface antigen ([4]; 10 µg adjuvant, day 35): 10005 CPM; Antibody response to hepatitis B surface antigen ([4]; 50 µg adjuvant, day 7): 2064 CPM; Antibody response to hepatitis B surface antigen ([4]; 50 µg adjuvant, day 14): 846 CPM; Antibody response to hepatitis B surface antigen ([4]; 50 µg adjuvant, day 28): 18804 CPM; Antibody response to hepatitis B surface antigen ([4]; 50 µg adjuvant, day 35): 20616 CPM; Antibody response to hepatitis B surface antigen ([4]; 100 µg adjuvant, day 7): 1107 CPM; Antibody response to hepatitis B surface antigen ([4]; 100 µg adjuvant, day 14): 537 CPM; Antibody response to hepatitis B surface antigen ([4]; 100 µg adjuvant, day 28): 19679 CPM; Antibody response to hepatitis B surface antigen ([4]; 100 µg adjuvant, day 35): 13427 CPM; IgE, radioactivity of bound isotype antibody ([5]; day of bleed 14): 33±10 cpm; IgG1, radioactivity of bound isotype antibody ([5]; day of bleed 14): 568±32 cpm; IgG2a, radioactivity of bound isotype antibody ([5]; day of bleed 14): 483±44 cpm; IgG2b, radioactivity of bound isotype antibody ([5]; day of bleed 14): 290±31 cpm; IgG3, radioactivity of bound isotype antibody ([5]; day of bleed 14): 144±19 cpm; IgM, radioactivity of bound isotype antibody ([5]; day of bleed 14): 347±37 cpm; IgE, radioactivity of bound isotype antibody ([5]; day of bleed 35): 55±33 cpm; IgG1, radioactivity of bound isotype antibody ([5]; day of bleed 35): 8030±155 cpm; IgG2a, radioactivity of bound isotype antibody ([5]; day of bleed 35): 12331±336 cpm; IgG2b, radioactivity of bound isotype antibody ([5]; day of bleed 35): 4710±115 cpm; IgG3, radioactivity of bound isotype antibody ([5]; day of bleed 35): 333±17 cpm; IgM, radioactivity of bound isotype antibody ([5]; day of bleed 35): 826±8 cpm; IgE, radioactivity of bound isotype antibody ([5]; day of bleed 42): 29±12 cpm; IgG1, radioactivity of bound isotype antibody ([5]; day of bleed 42): 6176±496 cpm; IgG2a, radioactivity of bound isotype antibody ([5]; day of bleed 42): 2271±215 cpm; IgG2b, radioactivity of bound isotype antibody ([5]; day of bleed 42): 1109±77 cpm; IgG3, radioactivity of bound isotype antibody ([5]; day of bleed 42): 165±24 cpm; IgM, radioactivity of bound isotype antibody ([5]; day of bleed 42): 545±87 cpm; levels of IgE antibodies ([5]; in words, compared to the control without adjuvant): no significant increase; Anti-HBsAg antibody concentration ([6]; day 7): 68 ng/mL; Anti-HBsAg antibody concentration ([6]; day 14): 91 ng/mL; Anti-HBsAg antibody concentration ([6]; day 21): 58 ng/mL; Anti-HBsAg antibody concentration ([6]; day 28): 355 ng/mL; Anti-HBsAg antibody concentration ([6]; day 35): 833 ng/mL; Anti-HBsAg antibody concentration ([6]; day 61): 752 ng/mL

Question: Which “Antibody response to HIV-1 polypeptide” value ([7]; ANIMAL 1, day 14, 300 µg polypeptide-KLH + 500 µg octadecyl tyrosine hydrochloride on day 1 and 35, background subtracted) does the source give for “H-Val-Ala-Pro-Thr-Lys-Ala-Lys-Arg-Arg-Val-Val-Gln-Arg-Glu-Lys-Arg-Ala-Val-Gly-Ile-Gly-Ala-Leu-Phe-Leu-Gly-Phe-Leu-Gly-Ala-Ala-Gly-Ser- (VAPTKAKRRVVQREKRAVGIGALFLGFLGAAGS; printed: Val-Ala-Pro-Thr-Lys-Ala-Lys-Arg-Arg-Val-Val-Gln-Arg-Glu-Lys-Arg-Ala-Val-Gly-Ile-Gly-Ala-Leu-Phe-Leu-Gly-Phe-Leu-Gly-Ala-Ala-Gly-Ser-) [503-535]” here?
Answer: Its value is 2004 CPM.

Question: What about the “Antibody response to HIV-1 polypeptide” value ([7]; ANIMAL 1, day 32, 300 µg polypeptide-KLH + 500 µg octadecyl tyrosine hydrochloride on day 1 and 35, background subtracted) of the same compound?
Answer: Its value is 2185 CPM.

Question: What about the “Antibody response to HIV-1 polypeptide” value ([7]; ANIMAL 1, day 49, 300 µg polypeptide-KLH + 500 µg octadecyl tyrosine hydrochloride on day 1 and 35, background subtracted) of the same compound?
Answer: Its value is 5948 CPM.

Question: What about the “Antibody response to HIV-1 polypeptide” value ([7]; ANIMAL 1, day -3 (bled before the first immunization), after subtraction of background on bovine serum albumin coated plates) of the same compound?
Answer: Its value is 1020 CPM.

Question: And the “Antibody response to HIV-1 polypeptide” value ([7]; ANIMAL 2, day 14, 300 µg polypeptide-KLH + 500 µg octadecyl tyrosine hydrochloride on day 1 and 35, background subtracted)?
Answer: Its value is 2160 CPM.

Question: And the “Antibody response to HIV-1 polypeptide” value ([7]; ANIMAL 2, day 32, 300 µg polypeptide-KLH + 500 µg octadecyl tyrosine hydrochloride on day 1 and 35, background subtracted)?
Answer: The value was 2121 CPM.

Question: What about the “Antibody response to HIV-1 polypeptide” value ([7]; ANIMAL 2, day 49, 300 µg polypeptide-KLH + 500 µg octadecyl tyrosine hydrochloride on day 1 and 35, background subtracted) of the same compound?
Answer: The value was 4470 CPM.

Question: What about the “Antibody response to HIV-1 polypeptide” value ([7]; ANIMAL 2, day -3 (bled before the first immunization), after subtraction of background on bovine serum albumin coated plates) of the same compound?
Answer: The value was 1530 CPM.
